According to patent US8816078B2, “Acidic gas removal by aqueous amine solvents” (Board of Regents, The University of Texas System, priority 2010, dated 2014):

Columns and labels:
Type in all cases: physicochemical
[1] = Solubility and solids precipitation limits of amines in water; settings: rich conditions; 8 m
[2] = Solubility measurements of CO2 loaded PZ/1-MPZ/1,4-DMPZ blends
Description: Solubility measurements for CO2 loaded 3.9 m PZ/3.9 m 1-MPZ/0.2 m 1,4-DMPZ and 3.75 m PZ/3.75 m 1-MPZ/0.5 m 1,4-DMPZ solutions were taken to predict the solubility envelope of these blends. The solubility of the blends at varying loadings and temperatures are shown in FIG. 7 for the 3.9 m PZ/3.9 m 1-MPZ/0.2 m 1,4-DMPZ blend and in FIG. 8 for the 3.75 m PZ/3.75 m 1-MPZ/0.5 m 1,4-DMPZ blend. […] At 0° C., the 8 m blend: 3.75 m PZ/3.75 m 1-MPZ/0.5 m […] was soluble at 2° C. with a lean loading of 0.17 mol CO2/mol alkalinity, in contrast to 8 m PZ, which must be operated at loading above 0.3 to avoid solids precipitation.
A maximum CO2 loading of 0.41 and 0.39 was obtained for the 3.9 m PZ/3.9 m 1-MPZ/0.2 m 1,4-DMPZ blend and the 3.75 m PZ/3.75 m 1-MPZ/0.5 m 1,4 DMPZ blend respectively at room temperature without any solid precipitation. Intermediary loaded solutions were prepared by appropriately mixing the rich loaded and zero loaded solutions and observed at temperatures between 0° C. and the melting point of the solution.

[3] = Heat of CO2 absorption calculated from the VLE model; settings: Conc. (m): MDEA/PZ 7/2, PZ 8, MEA 7, HEP 7.7, AEP 6, 2-PE 8, AMP 4.8, EDA 12, DGA 10, PZ-MPZ 4/4, MPZ 8
Description: VLE models of CO2 partial pressure were regressed from experimental data to calculate CO2 capacity and enthalpy of CO2 absorption (ΔHabs).
Heat of absorption was calculated from the model mentioned above by applying the following thermodynamic equation: […]
Heat of absorption was calculated from the model mentioned above by applying the Gibbs-Helmholtz equation: […]
The heat absorption of CO2 at a 1.5 kPa, which is an average CO2 partial pressure for lean and rich solutions, was calculated.

[4] = Cyclic CO2 capacity calculated from the regressed VLE model; settings: Conc. (m): MDEA/PZ 7/2, PZ 8, MEA 7, HEP 7.7, AEP 6, 2-PE 8, AMP 4.8, EDA 12, DGA 10, PZ-MPZ 4/4, MPZ 8

| Compound | solids precipitation [1] | precipitation when mixing only the amine in water [2] | ΔHabs@PCO2 = 1.5 kPa [3] | CO2 Capacity [4] |
| --- | --- | --- | --- | --- |
| CC(N)CN (centres unmarked) [1,2-diaminopropane] | precipitates solids | – | – | – |
| CN1CCN(C)CC1 [1,4-DMPZ, 1,4-dimethyl-piperazine] | – | no precipitation | – | – |
| OCCC1CCCCN1 (centres unmarked) [2-PE] | – | – | 17.4 kcal/mol | 1.23 mol/kg (water + amine) |
| NCCN1CCNCC1 [AEP] | – | – | 17.2 kcal/mol | 0.66 mol/kg (water + amine) |
| CC(C)(N)CO [AMP] | – | – | 17.4 kcal/mol | 0.96 mol/kg (water + amine) |
| NCCOCCO [DGA ®] | – | – | 19.4 kcal/mol | 0.38 mol/kg (water + amine) |
| OCCN1CCNCC1 [HEP] | – | – | 16.5 kcal/mol | 0.68 mol/kg (water + amine) |
| NCCO [MEA, monoethanolamine] | – | – | 19.6 kcal/mol | 0.47 mol/kg (water + amine) |
